Values quoted from earlier work, collected in patent US11103473B2, “Treatment and prevention of autism and autism spectrum disorders” (ASDERA LLC, priority 2013, dated 2021).
Read-outs that look alike come from different tables or passages of the source. Blank lines part the entries; values can stand above or below the molecule they belong to.

Key:
[1] = for ulcerative index (UI): equimolar dose, prodrug vs parent NSAID
[2] = prodrug vs parent DCF
[3] = pH 7.1
[4] = for Cmax (μg/ml) / Tmax (h) / % excreted (5 d) / t1/2 (h): mean; for Cmax (μg/ml) / Tmax (h): Ito (1994); for % excreted (5 d): Sato (1997)
[5] = test system: animal models of seizures; conditions: in vivo
albumin = albumin (Homo sapiens, UniProt P02768)
Chain of albumin (P02768 25-609): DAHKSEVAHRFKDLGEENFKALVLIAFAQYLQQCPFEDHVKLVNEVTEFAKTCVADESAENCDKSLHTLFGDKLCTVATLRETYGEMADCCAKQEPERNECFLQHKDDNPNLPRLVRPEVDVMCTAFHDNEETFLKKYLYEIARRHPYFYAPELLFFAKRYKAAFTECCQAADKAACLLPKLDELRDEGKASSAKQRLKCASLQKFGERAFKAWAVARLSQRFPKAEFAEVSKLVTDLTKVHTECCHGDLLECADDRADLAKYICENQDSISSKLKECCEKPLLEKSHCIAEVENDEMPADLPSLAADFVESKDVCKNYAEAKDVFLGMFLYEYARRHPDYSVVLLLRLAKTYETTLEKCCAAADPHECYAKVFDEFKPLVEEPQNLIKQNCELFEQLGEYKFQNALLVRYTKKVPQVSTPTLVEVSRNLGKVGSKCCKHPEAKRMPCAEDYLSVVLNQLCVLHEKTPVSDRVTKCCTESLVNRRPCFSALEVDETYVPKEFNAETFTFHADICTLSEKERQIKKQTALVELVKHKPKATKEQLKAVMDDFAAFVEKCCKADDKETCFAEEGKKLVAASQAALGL

[6] = not given; remark: listed apart in the source
[7] = not given; remark: listed apart in the source
[8] = not given; remark: listed apart in the source
Mouse: writhing = conditions: relative to parent
[9] = relative to parent, animal models

SMILES: CC(=O)Oc1ccccc1C(=O)O [Aspirin, 2-(acetyloxy)benzoic acid]
- ulcerative index (UI) [1]: 57.4

SMILES: CC(C)c1c(CO)n(C)n(-c2ccccc2)c1=O [HMP, 3-hydroxymethyl propyphenazon]
- average number of ulcers ([1]; in vivo): 1.25

SMILES: Cc1cccc(Nc2ccccc2C(=O)O)c1C [MFA, 2-[(2,3-dimethylphenyl)amino]benzoic acid]
- apparent volume of distribution (Vzss/F) (500 mg oral dose): 1.06 L/kg
- time of peak levels (PL) (adults): 2 h
- steady-state concentrations (adults, 1 g 4x daily, reached on the 2nd day): 20 µg/mL
- plasma PL (after a 1 g oral dose): 10 to 20 µg/mL
- time to plasma PL (after a 1 g oral dose): 2 to 4 h
- drug accumulation (after multiple doses): no evidence of drug accumulation
- elimination half-life (in vivo): ~2 h and ≈ 2 h
- fecal route of elimination, share of the dose (mainly unconjugated 3-carboxy MFA): ≤ 20%
- dose excreted into the urine as glucuronide of (share of MFA dose per species): 6%
- dose excreted into the urine (total, primarily as glucuronides): Approximately 52%
- mean absorption (two 500 mg single oral dose studies): 30.5 µg/h/mL
- water solubility [3]: 0.004%
- Cmax ([4]; Healthy Adults (18-56 yr)): 10000 ng/mL
- Tmax ([4]; Healthy Adults (18-56 yr)): 2.0 h
- t1/2 ([4]; Healthy Adults (18-56 yr)): 2 to 4 h
- Cmax (μg/ml) ([4]; Preterm Children (0-5 d)): 3.8 (12) μg/ml
- Tmax (h) ([4]; Preterm Children (0-5 d)): 8.0 (12) h
- % excreted (5 d) ([4]; Preterm Children (0-5 d)): 16.6 (5) %
- t1/2 (h) ([4]; Preterm Children (0-5 d), bottom: Sato (1997)): 27.0 (5) h
- t1/2 (h) ([4]; Preterm Children (0-5 d), top: Ito (1994)): 21.7 (12) h
- Cmax (μg/ml) ([4]; Preterm Children (6-22 d)): 3.7 (5) μg/ml
- Tmax (h) ([4]; Preterm Children (6-22 d)): 6.8 (5) h
- % excreted (5 d) ([4]; Preterm Children (6-22 d)): 45.7 (1) %
- t1/2 (h) ([4]; Preterm Children (6-22 d), bottom: Sato (1997)): 8.4 (1) h
- t1/2 (h) ([4]; Preterm Children (6-22 d), top: Ito (1994)): 11.6 (5) h
- efficacy in animal models of seizures [5]: shown efficacy
- bound to albumin (albumin): > 90%
- average number of ulcers ([1]; in vivo): 3.17

SMILES: Cc1cccc(Nc2ccccc2C(=O)O[C@@H]2C[C@H](C)CC[C@H]2C(C)C)c1C [MFA-menthol]
- Rat: Hint paw vs MFA (Rat: Hint paw; relative to parent): 115%
- t1/2 [h] pH 1.2 (SGF) ([7]; simulated gastric fluid): 20.8 h
- t1/2 [h] pH 7.5 (SIF) ([8]; simulated intestinal fluid): 8.9 h
- ulcer index vs parent drug ([1]; in vivo): better ulcer index than the parent drug
- GI risk vs MFA [1, 9]: 50%
- Mouse: writhing vs MFA (Mouse: writhing): 115%

SMILES: CC(C)Cc1ccc(C(C)C(=O)O)cc1 (stereo not shown) [ibuprofen, 2-[4-(2-methylpropyl)phenyl]propanoic acid]
- ulcerative index (UI) [1]: 45.8

The next lines start with results.

- Cmax [2]: 20190 ± 6010 ng/mL
SMILES: O=C(O)Cc1ccccc1Nc1c(Cl)cccc1Cl [DCF, 2-(2-[(2,6-dichlorophenyl)amino]phenyl)acetic acid]
- gastric damage ([1]; 50 mg/kg): severe gastric damage
- gastric damage ([1]; 200 mg/kg): markedly more damage

- t1/2 [h] pH 7.5 (serum/plasma) [6]: “shorter
- t1/2 [h] pH 1.2 (SGF) ([7]; simulated gi fluid): “suffi-
- GI risk vs MFA ([1]; in vivo): “no
SMILES: CC(=O)Nc1ccc(OC(=O)c2ccccc2Nc2cccc(C)c2C)cc1 [MFA-APAP Without spacer]
- Rat: Hint paw vs MFA (Rat: Hint paw; relative to parent): “better”

- t1/2 [h] pH 1.2 (SGF) ([7]; simulated gi fluid): 18.7 h
- half-life in simulated gastric fluid ([7]; simulated gi fluid, pH 1.2): 18.69 h
- half-life in simulated intestinal fluid ([8]; simulated gi fluid, pH 7.4): 8.98 h
- t1/2 [h] pH 7.5 (SIF) ([8]; simulated gi fluid): 9.0 h
- GI risk vs MFA ([1]; in vivo): 30%
SMILES: Cc1cccc(Nc2ccccc2C(=O)OCc2c(C(C)C)c(=O)n(-c3ccccc3)n2C)c1C [MFA-PPA Without spacer]
- Rat: Hint paw vs MFA (Rat: Hint paw; @2-6 h): ≈60%
- average number of ulcers ([1]; in vivo): 1.00
- Mouse: writhing vs MFA (Mouse: writhing): 63%

- t1/2 [h] pH 1.2 (SGF) ([7]; simulated gi fluid): 23.1 h
- t1/2 [h] pH 7.5 (SIF) ([8]; simulated gi fluid): 7.1 h
- GI risk vs MFA [1, 9]: 60%
SMILES: Cc1ccc(C(C)C)c(OC(=O)c2ccccc2Nc2cccc(C)c2C)c1 [MFA-thymol]
- Rat: Hint paw vs MFA (Rat: Hint paw; relative to parent): 125%
- ulcer index vs parent drug ([1]; in vivo): better ulcer index than the parent drug
- Mouse: writhing vs MFA (Mouse: writhing): 150%
